The target in one test is AXL (Homo sapiens (Human), UniProt P30530). Briefly: AXL autophosphorylation ELISA in A-172 cells. Format: cell-based. The settings on record: cellular, Gas6-stimulated, phospho-AXL ELISA. The gist of the method: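 A-172 glioblastoma cells, serum-starved 24 h, got 8-point compound dilutions (0.3% DMSO) for 1 h, then 1 μg/mL human Gas6 for 15 min. Phospho-AXL in lysates was quantified by ELISA against a standard, normalized between DMSO and reference-inhibitor controls; IC50 by 4-parameter logistic fit.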
Chain of AXL (P30530 26-894): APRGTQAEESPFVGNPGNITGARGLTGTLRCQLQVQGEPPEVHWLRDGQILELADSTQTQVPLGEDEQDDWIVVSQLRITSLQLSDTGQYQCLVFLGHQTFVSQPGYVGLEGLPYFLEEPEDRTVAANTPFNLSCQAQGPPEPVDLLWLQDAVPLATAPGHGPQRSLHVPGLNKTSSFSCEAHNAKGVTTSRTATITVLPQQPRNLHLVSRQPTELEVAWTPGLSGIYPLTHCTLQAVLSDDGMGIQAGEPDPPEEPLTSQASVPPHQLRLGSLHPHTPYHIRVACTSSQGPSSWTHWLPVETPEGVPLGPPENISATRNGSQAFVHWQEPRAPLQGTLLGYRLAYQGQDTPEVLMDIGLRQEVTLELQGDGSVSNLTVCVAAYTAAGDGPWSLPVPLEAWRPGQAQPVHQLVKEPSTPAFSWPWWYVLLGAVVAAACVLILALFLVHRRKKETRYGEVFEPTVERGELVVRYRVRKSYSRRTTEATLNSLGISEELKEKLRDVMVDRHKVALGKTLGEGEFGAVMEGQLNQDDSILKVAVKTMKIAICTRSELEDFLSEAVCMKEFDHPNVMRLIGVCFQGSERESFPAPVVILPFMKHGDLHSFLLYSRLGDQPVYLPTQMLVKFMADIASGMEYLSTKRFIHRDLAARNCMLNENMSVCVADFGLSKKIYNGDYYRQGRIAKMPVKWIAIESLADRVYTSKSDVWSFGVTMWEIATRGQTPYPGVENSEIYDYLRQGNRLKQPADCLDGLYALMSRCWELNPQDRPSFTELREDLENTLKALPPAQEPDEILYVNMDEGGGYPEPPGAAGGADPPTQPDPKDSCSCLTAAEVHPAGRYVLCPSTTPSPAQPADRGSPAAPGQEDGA

In the next test the target is Met (Homo sapiens (Human), UniProt P08581). Nature of the test: Human Met kinase assay (33P radiometric, KinaseProfiler). Format: biochemical. The settings on record: 10 μM ATP, read-out: c-Met IC50. The procedure:
(§1) Kinase activity and compound inhibition were investigated using the ^33P-Phosphoryl transfer radiometric kinase assay, performed using the KinaseProfiler™ service of Eurofins Pharma Discovery Services UK Limited. Dose-response experiments were performed using nine compound concentrations in a 96-well microtiter plate. For each assay, all compounds were prepared to a 50× final assay concentration (50 μM) in 100% DMSO, then diluted in a half-log series, with the final top concentration at 1 μM. This working stock of the compound was added to the assay well as the first component in the reaction, followed by the remaining components as detailed in the following assay protocols below. The positive control wells (100% kinase activity) contain all components of the reaction including 2% DMSO (control for solvent effects), except the compound of interest. Blank wells contain all components of the reaction, with the reference inhibitor, staurosporine. This reference compound was used to abolish kinase activity and generated the 0% kinase activity base-line. IC50 values were calculated by nonlinear regression analysis using the sigmoidal dose-response (variable slope) curve fit on XLFit version 5.3 (ID Business Solutions).
Human Met (residues R974-S1390 with A1209G and V1290L, 3.4 nM) was incubated with 8 mM MOPS pH 7.0, 0.2 mM EDTA, 250 µM KKKGQEEEYVFIE (SEQ ID NO. 45), 1 mM sodium orthovanadate, 5 mM […], 10 mM magnesium acetate, and 10 μM [γ-33P-ATP]. The reaction was initiated by the addition of the Mg/ATP mix. After incubation for 40 minutes at room temperature, the reaction was stopped by the addition of phosphoric acid to a concentration of 0.5%. A reaction aliquot of 10 μL was then spotted onto a P30 filtermat and washed four times for 4 minutes in 0.425% phosphoric acid and once in methanol prior to drying and scintillation counting. Incorporated 33P was measured using the Wallac Microbeta scintillation counter (Perkin Elmer).

In another test the target is KDR (Homo sapiens (Human), UniProt P35968). Nature of the test: KDR autophosphorylation ELISA in HUVEC cells. Format: cell-based. The settings on record: cellular, VEGF165-stimulated, phospho-KDR ELISA. The gist of the method:
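Serum-starved (24 h) HUVECs were pre-treated with compound (8-point dose curve, 0.3% DMSO final) for 1 h, then stimulated with 100 ng/mL human VEGF165 for 5 min. Lysate phospho-KDR was quantified by ELISA against a phospho-KDR standard. IC50 came from a 4-parameter logistic fit, normalized to stimulated-DMSO (100%) and unstimulated (0%) controls.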

A further test has as its target Human Axl (Homo sapiens (Human), UniProt P30530, Q764R). Nature of the test: Human AXL kinase assay (33P radiometric, KinaseProfiler). Format: biochemical. The settings on record: 10 μM ATP. As for the experimental part: as §1
Human Axl (residues H473-A894 with Q764R, 161 nM) was incubated with 8 mM MOPS pH 7.0, 0.2 mM EDTA, 250 μM KKSRGDYMTMQIG (SEQ ID NO. 43), 10 mM magnesium acetate and 10 μM [γ-33P-ATP]. The reaction was initiated by the addition of the Mg/ATP mix. After incubation for 40 minutes at room temperature, the reaction was stopped by the addition of phosphoric acid to a concentration of 0.5%. A reaction aliquot of 10 μL was then spotted onto a P30 filtermat and washed four times for 4 minutes in 0.425% phosphoric acid and once in methanol prior to drying and scintillation counting. Incorporated ^33P was measured using the Wallac Microbeta scintillation counter (Perkin Elmer).

This passage reports IC50 results from US11708367B2, “Compounds for the treatment of kinase-dependent disorders” (Exelixis, Inc., priority 2018, dated 2023).

Some results are limits rather than exact numbers.

Chain of KDR (P35968 20-1356): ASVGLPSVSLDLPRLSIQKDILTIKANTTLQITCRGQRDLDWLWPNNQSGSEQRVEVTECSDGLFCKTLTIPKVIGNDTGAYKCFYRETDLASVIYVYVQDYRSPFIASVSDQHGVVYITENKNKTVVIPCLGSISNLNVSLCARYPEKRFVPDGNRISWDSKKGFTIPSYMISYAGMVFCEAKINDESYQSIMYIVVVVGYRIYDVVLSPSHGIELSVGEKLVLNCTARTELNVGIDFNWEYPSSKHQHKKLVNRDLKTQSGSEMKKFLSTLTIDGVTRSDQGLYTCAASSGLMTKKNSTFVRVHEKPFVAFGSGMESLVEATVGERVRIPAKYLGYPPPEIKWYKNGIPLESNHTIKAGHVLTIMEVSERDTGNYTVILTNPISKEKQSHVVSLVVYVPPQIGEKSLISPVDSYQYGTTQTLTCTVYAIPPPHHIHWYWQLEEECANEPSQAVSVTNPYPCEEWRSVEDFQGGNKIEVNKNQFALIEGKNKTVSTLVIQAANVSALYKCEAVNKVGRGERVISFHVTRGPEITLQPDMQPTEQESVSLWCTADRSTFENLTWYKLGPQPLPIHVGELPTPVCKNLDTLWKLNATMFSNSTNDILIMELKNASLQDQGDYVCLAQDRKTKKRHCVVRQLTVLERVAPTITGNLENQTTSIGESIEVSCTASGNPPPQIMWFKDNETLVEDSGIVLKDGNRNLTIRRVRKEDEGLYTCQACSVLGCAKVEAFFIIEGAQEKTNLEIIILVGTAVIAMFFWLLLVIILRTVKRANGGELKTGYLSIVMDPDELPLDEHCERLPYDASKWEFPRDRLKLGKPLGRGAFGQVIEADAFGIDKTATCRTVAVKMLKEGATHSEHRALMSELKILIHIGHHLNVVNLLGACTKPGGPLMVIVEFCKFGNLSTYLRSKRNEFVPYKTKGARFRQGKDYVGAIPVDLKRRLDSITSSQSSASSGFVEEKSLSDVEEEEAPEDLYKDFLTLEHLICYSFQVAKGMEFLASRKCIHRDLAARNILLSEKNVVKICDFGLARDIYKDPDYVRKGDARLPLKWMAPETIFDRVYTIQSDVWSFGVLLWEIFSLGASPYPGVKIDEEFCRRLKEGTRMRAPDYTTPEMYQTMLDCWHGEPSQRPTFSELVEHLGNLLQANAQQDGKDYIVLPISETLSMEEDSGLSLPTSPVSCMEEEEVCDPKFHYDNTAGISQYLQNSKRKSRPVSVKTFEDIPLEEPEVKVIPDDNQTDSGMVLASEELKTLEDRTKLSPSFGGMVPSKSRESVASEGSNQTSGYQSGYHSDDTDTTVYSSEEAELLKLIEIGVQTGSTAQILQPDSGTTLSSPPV
Chain of Human Axl (P30530 473-894 Q764R): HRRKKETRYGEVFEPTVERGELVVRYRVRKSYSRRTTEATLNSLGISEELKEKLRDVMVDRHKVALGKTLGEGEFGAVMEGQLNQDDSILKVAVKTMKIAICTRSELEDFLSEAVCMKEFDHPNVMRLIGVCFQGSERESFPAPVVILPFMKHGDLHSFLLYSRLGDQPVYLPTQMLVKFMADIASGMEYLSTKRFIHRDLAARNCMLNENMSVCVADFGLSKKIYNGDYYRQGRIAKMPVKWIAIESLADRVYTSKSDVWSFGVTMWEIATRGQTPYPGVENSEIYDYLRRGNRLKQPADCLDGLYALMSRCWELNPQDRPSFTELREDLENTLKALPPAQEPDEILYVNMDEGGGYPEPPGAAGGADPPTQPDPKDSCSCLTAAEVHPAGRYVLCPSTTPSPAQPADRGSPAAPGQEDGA

As for `COc1cc2ncnc(Oc3ccc(NC(=O)C4(C(=O)Nc5ccc(F)cc5)CC4)cc3)c2nc1OC` [Compound 28, 1-N-[4-(6,7-dimethoxy-pyrido[3,2-d]pyrimidin-4-yl)oxyphenyl]-1-N′-(4-fluorophenyl)cyclo-propane-1,1-dicarboxamide], the IC50 on AXL is 10 to 100 nM; at Met, 10 to 100 nM; against KDR, 10 to 100 nM; on Human Axl it was no more than 10 nM.
As to `COc1cc2ncnc(Oc3ccc(NC(=O)C4(C(=O)Nc5ccc(F)cc5)CC4)cc3Cl)c2nc1OC` [Compound 29, 1-N′-[3-chloro-4-(6,7-dimethoxypyrido[3,2-d]pyrimidin-4-yl)oxyphenyl]-1-N-(4-fluorophenyl)cyclo-propane-1,1-dicarboxamide], the IC50 at AXL is 10 to 100 nM; on Met, no more than 10 nM; against KDR it was no more than 10 nM; against Human Axl, 10 to 100 nM.
Consider `COc1cc2ncnc(Oc3ccc(NC(=O)C4(C(=O)Nc5ccc(F)cc5)CC4)cc3F)c2nc1OC` [Compound 30, 1-N′-[4-(6,7-dimethoxypyrido[3,2-d]pyrimidin-4-yl)oxy-3-fluorophenyl]-1-N-(4-fluorophenyl)cyclopropane-1,1-dicarboxamide], for which the 50% inhibitory concentration (IC50) against AXL, on Met, at KDR and at Human Axl was no more than 10 nM each time.
Regarding `COc1nc2c(Oc3ccc(NC(=O)C4(C(=O)Nc5ccc(F)cc5)CC4)cc3)ncnc2cc1OCCCN1CCOCC1` [Compound 65, 1-N′-(4-fluorophenyl)-1-N-[4-[6-methoxy-7-(3-morpholin-4-ylpropoxy)pyrido[3,2-d]pyrimidin-4-yl]oxyphenyl]cyclopropane-1,1-dicarboxamide], the IC50 against AXL is no more than 10 nM; on Met, 10 to 100 nM; on KDR it was no more than 10 nM; on Human Axl, 10 to 100 nM.
For the compound `COc1nc2c(Oc3ccc(NC(=O)C4(C(=O)Nc5ccc(F)cc5)CC4)cc3Cl)ncnc2cc1OCCCN1CCOCC1` [Compound 66, 1-N′-[3-chloro-4-[6-methoxy-7-(3-morpholin-4-ylpropoxy)pyrido[3,2-d]pyrimidin-4-yl]oxyphenyl]-1-N-(4-fluorophenyl)cyclo-propane-1,1-dicarboxamide], the half-inhibitory concentration (IC50) against AXL, on Met, against KDR and on Human Axl was no more than 10 nM in each case.
As for `COc1nc2c(Oc3ccc(NC(=O)C4(C(=O)Nc5ccc(F)cc5)CC4)cc3F)ncnc2cc1OCCCN1CCOCC1` [Compound 67, 1-N′-[3-fluoro-4-[6-methoxy-7-(3-morpholin-4-ylpropoxy)pyrido[3,2-d]pyrimidin-4-yl]oxyphenyl]-1-N-(4-fluorophenyl)cyclo-propane-1,1-dicarboxamide], the half-maximal inhibitory concentration (IC50) against AXL, on Met, on KDR and against Human Axl was no more than 10 nM in each case.
In the case of `COc1cc2c(Oc3ccc(NC(=O)C4(C(=O)Nc5ccc(F)cc5)CC4)cc3)ncnc2cn1` [Compound 91, 1-N′-(4-fluorophenyl)-1-N-[4-(6-methoxypyrido[3,4-d]pyrimidin-4-yl)oxyphenyl]cyclopropane-1,1-dicarboxamide], the IC50 against AXL is greater than 300 nM; at Met, 100 to 1000 nM; against KDR it was greater than 300 nM; against Human Axl, 100 to 1000 nM.
Turning to `COc1cc2ncnc(Oc3ccc(NC(=O)C4(C(=O)Nc5ccc(F)cc5)CC4)cc3)c2cn1` [Compound 104, 1-N′-(4-fluorophenyl)-1-N-[4-(7-methoxypyrido[4,3-d]pyrimidin-4-yl)oxy-phenyl]cyclopropane-1,1-dicarboxamide], the half-inhibitory concentration (IC50) is greater than 300 nM on AXL, 10 to 100 nM on Met, greater than 300 nM against KDR and 10 to 100 nM on Human Axl.
`COc1cc2ncnc(Oc3ccc(NC(=O)C4(C(=O)Nc5ccc(F)cc5)CC4)cc3)c2cc1C(=O)NC1COC1` [Compound 115, 1-N′-(4-fluorophenyl)-1-N-[4-[7-methoxy-6-(oxetan-3-ylcarbamoyl)quinazolin-4-yl]oxyphenyl]cyclopropane-1,1-dicarboxamide]: the IC50 was greater than 300 nM against AXL, 10 to 100 nM at Met, 10 to 100 nM at KDR and 10 to 100 nM against Human Axl.
In the case of `COc1cc2ncnc(Oc3ccc(NC(=O)C4(C(=O)Nc5ccc(F)cc5)CC4)cc3)c2cc1C(=O)NC1CC1` [Compound 116, 1-N-[4-[6-(cyclopropylcarbamoyl)-7-methoxyquinazolin-4-yl]oxyphenyl]-1-N′-(4-fluorophenyl)cyclopropane-1,1-dicarboxamide], the IC50 was 100 to 300 nM at AXL, 10 to 100 nM at Met, 10 to 100 nM on KDR and 10 to 100 nM on Human Axl.
In the case of `COc1cc2ncnc(Oc3ccc(NC(=O)C4(C(=O)Nc5ccc(F)cc5)CC4)cc3)c2cc1C(N)=O` [Compound 117, 1-N-[4-(6-carbamoyl-7-methoxyquinazolin-4-yl)oxyphenyl]-1-N′-(4-fluorophenyl)cyclopropane-1,1-dicarboxamide], the concentration for half-maximal inhibition (IC50) is no more than 10 nM against AXL, 10 to 100 nM on Met, 10 to 100 nM on KDR and 10 to 100 nM on Human Axl.
`COc1cc2ncnc(Oc3ccc(NC(=O)C4(C(=O)Nc5ccc(F)cc5)CC4)cc3)c2cc1C(=O)NCCN1CCCC1` [Compound 118, 1-N′-(4-fluorophenyl)-1-N-[4-[7-methoxy-6-(2-pyrrolidin-1-ylethyl-carbamoyl)quinazolin-4-yl]oxyphenyl]cyclopropane-1,1-dicarboxamide]: the IC50 at AXL was 10 to 100 nM; on Met it was 10 to 100 nM; against KDR, 100 to 300 nM; against Human Axl, 10 to 100 nM.
As to `COc1cc2ncnc(Oc3ccc(NC(=O)C4(C(=O)Nc5ccc(F)cc5)CC4)cc3)c2cc1C(=O)NC[C@H]1CCCN1C(=O)OC(C)(C)C` [Compound 119, tert-butyl (2R)-2-[[[4-[4-[[1-[(4-fluoro-phenyl)carbamoyl]cyclo-propane-carbonyl]amino]phenoxy]-7-methoxyquinazoline-6-carbonyl]amino]methyl]pyr-rolidine-1-carboxylate], the IC50 on AXL is 100 to 300 nM; on Met, 100 to 1000 nM; at KDR, 10 to 100 nM; on Human Axl, 10 to 100 nM.
For the compound `COc1cc2ncnc(Oc3ccc(NC(=O)C4(C(=O)Nc5ccc(F)cc5)CC4)cc3)c2cc1C(=O)NC[C@@H]1CCCN1C(=O)OC(C)(C)C` [Compound 120, tert-butyl (2S)-2-[[[4-[4-[[1-[(4-fluoro-phenyl)carbamoyl]cyclo-propane-carbonyl]amino]phenoxy]-7-methoxyquinazoline-6-carbonyl]amino]methyl]pyr-rolidine-1-carboxylate], the 50% inhibitory concentration (IC50) at AXL is greater than 300 nM; at Met, 100 to 1000 nM; at KDR it was 100 to 300 nM; against Human Axl, 10 to 100 nM.
In the same order, the values of `COc1cc2ncnc(Oc3ccc(NC(=O)C4(C(=O)Nc5ccc(F)cc5)CC4)cc3)c2cc1C(=O)NC[C@H]1CCCN1` [Compound 121, 1-N′-(4-fluorophenyl)-1-N-[4-[7-methoxy-6-[[(2R)-pyrrolidin-2-yl]methyl-carbamoyl]quinazolin-4-yl]oxyphenyl]cyclopropane-1,1-dicarboxamide] are 10 to 100 nM, no more than 10 nM, 100 to 300 nM and no more than 10 nM.
For `COc1cc2ncnc(Oc3ccc(NC(=O)C4(C(=O)Nc5ccc(F)cc5)CC4)cc3)c2cc1C(=O)NC[C@@H]1CCCN1` [Compound 122, 1-N′-(4-fluorophenyl)-1-N-[4-[7-methoxy-6-[[(2S)-pyrrolidin-2-yl]methyl-carbamoyl]quinazolin-4-yl]oxyphenyl]cyclopropane-1,1-dicarboxamide], the concentration for half-maximal inhibition (IC50) against AXL was 10 to 100 nM; on Met it was 10 to 100 nM; on KDR it was greater than 300 nM; on Human Axl, no more than 10 nM.
